In US11485742B2, “2-azaspiro[3.4]octane derivatives as M4 agonists” (NOVARTIS AG, priority 2019, dated 2022):

Target: T1, human cloned CHRM5 receptor (Homo sapiens, UniProt P08912)
T1 construct: expressed in transfected cells; host or cells: CHO (M5_CHO)
T1 sequence (P08912 1-532): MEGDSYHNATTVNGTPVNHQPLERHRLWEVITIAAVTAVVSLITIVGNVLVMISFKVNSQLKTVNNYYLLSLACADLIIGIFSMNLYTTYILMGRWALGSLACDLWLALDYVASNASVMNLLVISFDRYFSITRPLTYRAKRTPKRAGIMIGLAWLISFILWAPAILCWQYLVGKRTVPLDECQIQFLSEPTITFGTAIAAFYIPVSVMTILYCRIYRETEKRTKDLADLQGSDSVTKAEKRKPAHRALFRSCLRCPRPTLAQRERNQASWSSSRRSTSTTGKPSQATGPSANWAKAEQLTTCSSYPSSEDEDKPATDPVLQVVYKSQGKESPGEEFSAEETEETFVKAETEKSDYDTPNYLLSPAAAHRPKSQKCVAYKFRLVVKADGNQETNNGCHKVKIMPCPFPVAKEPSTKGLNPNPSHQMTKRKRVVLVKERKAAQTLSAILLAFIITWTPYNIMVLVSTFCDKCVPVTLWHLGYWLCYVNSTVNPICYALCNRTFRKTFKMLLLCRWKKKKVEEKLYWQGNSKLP
Assay: CHRM5 Ca++ Flux Assay (M5_CHO cells, agonist mode)
Type: cell-based
Conditions: for Emax: Percent Activity (PA) measured to EC100 of Carbachol, read-out: M5 FDSS PA %; for EC50: agonist mode, geometric mean if tested more than once, read-out: M5 FDSS EC50
Summary of the method: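 Agonist-mode calcium mobilisation: compounds, 11 concentrations in triplicate, applied to stable M3_CHO or M5_CHO cells loaded with Ca++ dye, fluorescence followed 3 min. Efficacy expressed against carbachol EC100; EC curves by four-parameter nonlinear regression, geometric mean across independent runs.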

Cc1cc(COc2ccc(F)cc2C2CCN([C@@H]3COC4(C3)CN(c3nnco3)C4)CC2)on1 [Example 2G, (S)-7-(4-(5-fluoro-2-((3-methylisoxazol-5-yl)methoxy)phenyl)piperidin-1-yl)-2-(1,3,4-oxadiazol-2-yl)-5-oxa-2-azaspiro[3.4]octane]
Emax: 0% | EC50: > 25 µM

COc1ccccc1C1CCN([C@@H]2COC3(C2)CN(c2nnco2)C3)CC1 [Example 1Q, (S)-7-(4-(2-methoxyphenyl)piperidin-1-yl)-2-(1,3,4-oxadiazol-2-yl)-5-oxa-2-azaspiro[3.4]octane]
Emax: 0% | EC50: > 25 µM

CC1(COc2ccc(F)cc2C2CCN([C@@H]3COC4(C3)CN(c3nncs3)C4)CC2)COC1 [Example 2B, (S)-7-(4-(5-fluoro-2-((3-methyloxetan-3-yl)methoxy)phenyl)piperidin-1-yl)-2-(1,3,4-thiadiazol-2-yl)-5-oxa-2-azaspiro[3.4]octane]
Emax: 0% | EC50: > 25 µM

Fc1ccc(OCC2COC2)c(C2CCN([C@@H]3COC4(C3)CN(c3nnco3)C4)CC2)c1 [Example 2H, (S)-7-(4-(5-fluoro-2-(oxetan-3-ylmethoxy)phenyl)piperidin-1-yl)-2-(1,3,4-oxadiazol-2-yl)-5-oxa-2-azaspiro[3.4]octane]
Emax: 0% | EC50: > 25 µM

Fc1ccc(OC2CC3(COC3)C2)c(C2CCN([C@@H]3COC4(C3)CN(c3nnco3)C4)CC2)c1 [Example 2L, (S)-7-(4-(2-((2-oxaspiro[3.3]heptan-6-yl)oxy)-5-fluorophenyl)piperidin-1-yl)-2-(1,3,4-oxadiazol-2-yl)-5-oxa-2-azaspiro[3.4]octane]
Emax: 0% | EC50: > 25 µM

CC(C)(O)COc1ccc(F)cc1C1CCN([C@@H]2COC3(C2)CN(c2nnco2)C3)CC1 [Example 1U, (S)-1-(2-(1-(2-(1,3,4-oxadiazol-2-yl)-5-oxa-2-azaspiro[3.4]octan-7-yl)piperidin-4-yl)-4-fluorophenoxy)-2-methylpropan-2-ol]
Emax: 0% | EC50: > 25 µM

Fc1ccc(OC2COC2)c(C2CCN([C@@H]3COC4(C3)CN(c3ncon3)C4)CC2)c1 [Example 6B, (S)-7-(4-(5-fluoro-2-(oxetan-3-yloxy)phenyl)piperidin-1-yl)-2-(1,2,4-oxadiazol-3-yl)-5-oxa-2-azaspiro[3.4]octane]
Emax: 0% | EC50: > 25 µM

OC1(COc2ccc(F)cc2C2CCN([C@@H]3COC4(C3)CN(c3nnco3)C4)CC2)COC1 [Example 2U, (S)-3-((2-(1-(2-(1,3,4-oxadiazol-2-yl)-5-oxa-2-azaspiro[3.4]octan-7-yl)piperidin-4-yl)-4-fluorophenoxy)methyl)oxetan-3-ol]
Emax: 0% | EC50: > 25 µM

Cc1nnc(COc2ccc(F)cc2C2CCN([C@@H]3COC4(C3)CN(c3nnco3)C4)CC2)o1 [Example 2F, (S)-7-(4-(5-fluoro-2-((5-methyl-1,3,4-oxadiazol-2-yl)methoxy)phenyl)piperidin-1-yl)-2-(1,3,4-oxadiazol-2-yl)-5-oxa-2-azaspiro[3.4]octane]
Emax: 30% | EC50: 3.65 µM

c1ccc(C2CCN([C@@H]3COC4(C3)CN(c3nnco3)C4)CC2)c(O[C@@H]2CCOC2)c1 [Example 1O, (S)-2-(1,3,4-oxadiazol-2-yl)-7-(4-(2-(((R)-tetrahydrofuran-3-yl)oxy)phenyl)piperidin-1-yl)-5-oxa-2-azaspiro[3.4]octane]
Emax: 0% | EC50: > 25 µM

Cc1nnc(-c2ccccc2C2CCN([C@@H]3COC4(C3)CN(c3nnco3)C4)CC2)o1 [Example 1Y, (S)-7-(4-(2-(5-methyl-1,3,4-oxadiazol-2-yl)phenyl)piperidin-1-yl)-2-(1,3,4-oxadiazol-2-yl)-5-oxa-2-azaspiro[3.4]octane]
Emax: 0% | EC50: > 25 µM

CC(C)(O)CCOc1ccc(F)cc1C1CCN([C@@H]2COC3(C2)CN(c2nnco2)C3)CC1 [Example 1N, (S)-4-(2-(1-(2-(1,3,4-oxadiazol-2-yl)-5-oxa-2-azaspiro[3.4]octan-7-yl)piperidin-4-yl)-4-fluorophenoxy)-2-methylbutan-2-ol]
Emax: 0% | EC50: > 25 µM

Fc1cc(O[C@@H]2CCOC2)c(C2CCN([C@@H]3COC4(C3)CN(c3nnco3)C4)CC2)cc1F [Example 1R, (S)-7-(4-(4,5-difluoro-2-(((R)-tetrahydrofuran-3-yl)oxy)phenyl)piperidin-1-yl)-2-(1,3,4-oxadiazol-2-yl)-5-oxa-2-azaspiro[3.4]octane]
Emax: 0% | EC50: > 25 µM

Cc1nnc(COc2ccc(F)cc2C2CCN([C@@H]3COC4(C3)CN(c3nnco3)C4)CC2)s1 [Example 2E, (S)-7-(4-(5-fluoro-2-((5-methyl-1,3,4-thiadiazol-2-yl)methoxy)phenyl)piperidin-1-yl)-2-(1,3,4-oxadiazol-2-yl)-5-oxa-2-azaspiro[3.4]octane]
Emax: 23% | EC50: 1.67 µM

Fc1ccc(OCc2ncccn2)c(C2CCN([C@@H]3COC4(C3)CN(c3nnco3)C4)CC2)c1 [Example 2I, (S)-7-(4-(5-fluoro-2-(pyrimidin-2-ylmethoxy)phenyl)piperidin-1-yl)-2-(1,3,4-oxadiazol-2-yl)-5-oxa-2-azaspiro[3.4]octane]
Emax: 0% | EC50: > 25 µM

Fc1ccc(OC2CC3(COC3)C2)c(C2CCN([C@H]3COC4(C3)CN(c3nnco3)C4)CC2)c1 [Example 7A, (R)-7-(4-(2-((2-oxaspiro[3.3]heptan-6-yl)oxy)-5-fluorophenyl)piperidin-1-yl)-2-(1,3,4-oxadiazol-2-yl)-5-oxa-2-azaspiro[3.4]octane]
Emax: 0% | EC50: > 25 µM

COc1ccc(F)cc1C1CCN([C@@H]2COC3(C2)CN(c2nnco2)C3)CC1 [Example 1V, (S)-7-(4-(5-fluoro-2-methoxyphenyl)piperidin-1-yl)-2-(1,3,4-oxadiazol-2-yl)-5-oxa-2-azaspiro[3.4]octane]
Emax: 0% | EC50: > 25 µM

CC(C)(O)CCOc1cc(F)ccc1C1CCN([C@@H]2COC3(C2)CN(c2nnco2)C3)CC1 [Example 1T, (S)-4-(2-(1-(2-(1,3,4-oxadiazol-2-yl)-5-oxa-2-azaspiro[3.4]octan-7-yl)piperidin-4-yl)-5-fluorophenoxy)-2-methylbutan-2-ol]
Emax: 0% | EC50: > 25 µM

CC(C)(O)CCOc1cc(F)ccc1C1CCN([C@@H]2COC3(C2)CN(c2nncs2)C3)CC1 [Example 5V, (S)-4-(2-(1-(2-(1,3,4-thiadiazol-2-yl)-5-oxa-2-azaspiro[3.4]octan-7-yl)piperidin-4-yl)-5-fluorophenoxy)-2-methylbutan-2-ol]
Emax: 0% | EC50: > 25 µM

Fc1ccc(OC2CCOCC2)c(C2CCN([C@@H]3COC4(C3)CN(c3ncon3)C4)CC2)c1 [Example 6A, (S)-7-(4-(5-fluoro-2-((tetrahydro-2H-pyran-4-yl)oxy)phenyl)piperidin-1-yl)-2-(1,2,4-oxadiazol-3-yl)-5-oxa-2-azaspiro[3.4]octane]
Emax: 0% | EC50: > 25 µM

Fc1ccc(OCC2CCOCC2)c(C2CCN([C@@H]3COC4(C3)CN(c3nnco3)C4)CC2)c1 [Example 1J, (S)-7-(4-(5-fluoro-2-((tetrahydro-2H-pyran-4-yl)methoxy)phenyl)piperidin-1-yl)-2-(1,3,4-oxadiazol-2-yl)-5-oxa-2-azaspiro[3.4]octane]
Emax: 0% | EC50: > 25 µM

c1ccc(C2CCN([C@@H]3COC4(C3)CN(c3nnco3)C4)CC2)c(-c2ncco2)c1 [Example 1X, (S)-2-(1,3,4-oxadiazol-2-yl)-7-(4-(2-(oxazol-2-yl)phenyl)piperidin-1-yl)-5-oxa-2-azaspiro[3.4]octane]
Emax: 0% | EC50: > 25 µM

c1ccc(C2CCN([C@@H]3COC4(C3)CN(c3nnco3)C4)CC2)c(-c2cncnc2)c1 [Example 1W, (S)-2-(1,3,4-oxadiazol-2-yl)-7-(4-(2-(pyrimidin-5-yl)phenyl)piperidin-1-yl)-5-oxa-2-azaspiro[3.4]octane]
Emax: 20% | EC50: 13.8 µM

Fc1ccc(OC2COCOC2)c(C2CCN([C@@H]3COC4(C3)CN(c3nnco3)C4)CC2)c1 [Example 1M, (S)-7-(4-(2-((1,3-dioxan-5-yl)oxy)-5-fluorophenyl)piperidin-1-yl)-2-(1,3,4-oxadiazol-2-yl)-5-oxa-2-azaspiro[3.4]octane]
Emax: 0% | EC50: > 25 µM

Fc1ccc(OC2CC3(COC3)C2)c(C2CCN([C@@H]3COC4(C3)CN(c3nncs3)C4)CC2)c1 [Example 5W, (S)-7-(4-(2-((2-oxaspiro[3.3]heptan-6-yl)oxy)-5-fluorophenyl)piperidin-1-yl)-2-(1,3,4-thiadiazol-2-yl)-5-oxa-2-azaspiro[3.4]octane]
Emax: 0% | EC50: > 25 µM

COCCOc1ccc(F)cc1C1CCN([C@@H]2COC3(C2)CN(c2nnco2)C3)CC1 [Example 1L, (S)-7-(4-(5-fluoro-2-(2-methoxyethoxy)phenyl)piperidin-1-yl)-2-(1,3,4-oxadiazol-2-yl)-5-oxa-2-azaspiro[3.4]octane]
Emax: 0% | EC50: > 25 µM
